Here are results for three compounds from patent publication US11465980B2, “6-membered aza-heterocyclic containing delta-opioid receptor modulating compounds, methods of using and making the same” (Trevena, Inc., priority 2015, dated 2022).

The subject of test [1] is mouse. The test is described as follows: Tactile allodynia produced by intraplantar Freund's Complete Adjuvant, von Frey (mouse). Format: in vivo. The following applies: p < 0.05 vs vehicle. How it is done: (§1) Animals were acclimated to the vivarium for at least 48 hr prior to behavioral testing. Inflammation was induced for both rodent species with the administration of an intraplantar (subcutaneous injection into the plantar surface of the hind paw, i.pl.) injection of 0.10 ml Freund's Complete Adjuvant (FCA).
For mouse studies, the experiments were conducted 48 hours after FCA administration. Tactile allodynia was measured using a series of von Frey monofilaments. These filaments are bendable, plastic and intended to poke, not penetrate, the skin. Animals were placed in a Plexiglas chamber (approximately 10 cm×20 cm×25 cm) and allowed to habituate for 5-10 minutes. The chamber was positioned on top of a mesh screen so that von Frey monofilaments can be presented to the plantar surface of the hind paw that is inflamed. The measurement of tactile sensitivity for the injected hind paw is obtained using the up/down method (LaBuda and Little, 2005, J Neurosci. Methods, 144, 175) with […]. Each trial will start with a von Frey force of 0.6 grams delivered to the hind paw for approximately 1-2 seconds. If there was no withdrawal response, the next higher force was be delivered. If there was a response, the next lower force was delivered. This procedure was performed until no response was made at the highest force (2 grams) or until four stimuli are administered following the initial response. The 50% paw withdrawal threshold for the hind paw was be calculated using the following formula: [Xth]log=[vFi]log+ky where [vFr] is the force of the last von Frey used, k is the average interval (in log units) between the von Frey monofilaments, and y is a value that depends upon the pattern of withdrawal responses (Dixon, Annual Review Pharmacol Toxicol, 1980, 20, 441).

The subject of test [2] is adult male C57 mice. The experiment in a line: Tail suspension test (TST). Format: in vivo, mouse. The following applies: Mus musculus; route sc, po; p < 0.05 compared to vehicle-treated mice; read-out: Active TST Dose. How it is done: The experiments were performed using adult male C57 mice (6-10 weeks of age, 20-30 g, Hilltop Lab, PA). The mice were housed in standard rodent cages with stainless steel mesh wire bar lids in groups of 4 with controlled temperature and light cycle (6:00 a.m.-6:00 p.m.). Animals were given free access to food (Harlan Teklad Global 18% protein (Madison, Wis.)) and water during a minimum 2-day habituation period to the laboratory. Animals that were used in the study were handled, housed, and sacrificed (using compressed CO2) in accord with the current NIH guidelines regarding the use and care of laboratory animals, and all applicable local, state, and federal regulations and guidelines. Animals are identified by cage number, and by markings applied to the proximal tip of the tail using a permanent marker. Group sizes (n=8, and therefore 30-50 animals per study) provide reliable estimates of treatment effects, and this species and strain of mouse has been recognized as appropriate for pharmacology studies.
To measure efficacy of the compounds the compounds were tested using a tail suspension test. The tail suspension test is a behavioral test used to evaluate the efficacy of antidepressant drugs in rodents. In the TST, mice (n=8/group) were suspended by the tail with tape approximately 30-50 cm above the lab bench. Mice are positioned such that the base of their tail is perpendicular to the lab bench. Each mouse is given 1 trial that last 6 minutes. The total duration of immobility is calculated as the percentage of time that the mouse is immobile. The duration of immobility is the main parameter measured. This is calculated from the cumulated time during which the animals is absent of initiated movements including passive swaying. When antidepressant drugs are administered, immobility is decreased by a variety of classes of antidepressant drugs. One or more of the compounds show antidepressant activity.

The test system of test [3] is mouse. The test is described as follows: Tactile allodynia produced by nitroglycerin (migraine model, mouse). Particulars: route sc, nitroglycerin 10 mg/kg ip, p < 0.05 vs vehicle, read-out: Active Migraine Doses. Format: in vivo. How it is done:
Compounds were tested for efficacy in rodent models of nitroglycerine induced migraine. In this model both rats and mice can be induced to have a behavioral response consistent with the progression of a migraine attack by the intraperitoneal injection of nitroglycerin. In this test mice or rats (n=8/group) are given an intraperitoneal injection of nitroglycerin at 10 mg/kg. After 90 minutes the animals are subcutaneously dosed with test compound. A measurement of mechanical allodynia will be obtained using the up/down method with seven von Frey monofilaments. There is a specific series used for rat and mouse. Each monofilament is delivered to the hind paw for approximately 1-2 seconds. If there is a response, the next lower force will be delivered. This procedure will be performed until no response was made at the highest force or until four stimuli are administered following the initial response. The 50% paw withdrawal threshold for the hind paw will be calculated using the following formula: [Xth]log=[vFr]log+ky where [vFr] is the force of the last von Frey used, k is the average interval (in log units) between the von Frey monofilaments, and y is a value that depends upon the pattern of withdrawal responses. Testing for tactile sensitivity will be performed and a withdrawal value will be assigned as the tactile sensitivity (expressed in grams of force required to elicit a response) for the injected paw for each animal. Data is presented as the mean grams required to produce a hind paw withdrawal from the von Frey stimulus. […] Compounds found to be effective in this model of migraine at the doses indicated, although other doses may also be active. Other compounds described herein were not necessarily tested, but are expected to be able have some level of efficacy.

In test [4] the test system is rat. The test is described as follows: Hemilesioned rat 6-OHDA model (bar, drag, rotarod tests). Particulars: route sc, p < 0.05 vs vehicle. Format: in vivo. How it is done: Compounds were tested for efficacy in reversing akinesia and bradykinesia in two well accepted rodent Parkinson's disease (PD) models; the haloperidol-induced rat catalepsy and 6-OHDA rat hemiparkinson lesion models.
In the hemilesioned rat 6-OHDA model, the effect of compound on the akinetic response to lesioning of the contralateral forepaw in the bar test and stepping activity as measured by the drag test were determined. […] This assay examines efficacy for reversing PD motor symptoms (i.e. akinesia/bradykinesia and gait abilities). The behavioral readouts will include immobility time in the bar test (akinesia), number of steps in the drag test (akinesia/bradykinesia) and time spent on rod in the rotarod test (overall gait ability, gross motor behavior). Compounds were administered subcutaneously and efficacy was evaluated between 30 and 90 min post dose.

For test [5], the system named is rat. The experiment in a line: Tactile allodynia produced by nitroglycerin (migraine model, rat). In kind it is in vivo. The following applies: route sc, nitroglycerin 10 mg/kg ip, p < 0.05 vs vehicle.
In test [6] the test system is rat. The experiment in a line: Mechanical allodynia after Freund's Complete Adjuvant, Randall-Selitto (rat). In kind it is in vivo. Particulars: route sc, p < 0.05 vs vehicle. How it is done:
as §1
For rat studies, the experiments were conducted 24 hours after CFA administration. Rats are tested for mechanical allodynia in a Randall-Selitto apparatus. The inflamed paw is put on a pedestal and a pointed force of increasing intensity (0 to 250 grams) is applied to the paw. When the animal struggles to withdraw from the force the test is stopped and the force to induce that struggle is recorded. Data may be presented as mean grams of force to withdrawal or a percentage of the maximum possible effect.

The target of test [7] is T1, delta-opioid receptor (Accession NP_000902) (Homo sapiens, UniProt P41143). The experiment in a line: cAMP assay (receptor G-protein mediated response, HTRF). Format: cell-based. How it is done:
(§2) Plasmids encoding delta-opioid receptor (Accession NP_000902), mu-opioid receptor (Accession NP_000905) and kappa-opioid receptor (Accession Assession NP_000903) were generated in the pCMV-Prolink backbone and transfected into an EA-arrestin parental human embryonic kidney (HEK-293) cell line from DiscoveRx Corporation. Clonal stable lines were subsequently selected under G418.
Cell lines were grown adherently in Minimum Essential Media (Cellgro cat #10-010-CM) containing 10% fetal bovine serum (Hyclone cat #SH30071.03), 4 mM glutamine (Cellgro cat #25-005-CI), 150 ug/ml hygromycin B (Cellgro cat #30-240-CR), 150 ug/ml G418 (Cellgro cat #30-234-CR), and 50 u/50 ug penicillin/streptomycin (Lonza cat #17-603E). […]
Receptor G-protein mediated responses were determined by measuring changes in intracellular cAMP using CisBio HTRF cAMP HiRange kit (cat #62AM6PEJ) based on time-resolved fluorescence resonance energy transfer (TR-FRET). […] Following a 30 minute incubation at 37° C. the components of the cAMP HiRange kit were added as directed and the plates were read after 1 hour on a BMG PheraStar plate reader. Responses were measured as the ratio of fluorescence at 665 nm/620 nm per manufacturer's instructions.

For test [8], the target named is T1, delta-opioid receptor (Accession NP_000902). The experiment in a line: β-arrestin recruitment assay (DiscoveRx PathHunter). Format: cell-based. Particulars: HEK-293 cells. How it is done:
as §2
Cell lines were grown adherently in Minimum Essential Media (Cellgro cat #10-010-CM) containing 10% fetal bovine serum (Hyclone cat #SH30071.03), 4 mM glutamine (Cellgro cat #25-005-CI), 150 ug/ml hygromycin B (Cellgro cat #30-240-CR), 150 ug/ml G418 (Cellgro cat #30-234-CR), and 50 u/50 ug penicillin/streptomycin (Lonza cat #17-603E). Prior to the assay cells were removed from the flasks with CellStripper (Cellgro cat #25-056-CI), repeatedly pipetted to disperse cells, and spun at low speed for 5 min at room temperature. Cells were then resuspended at 250,000 cells/ml in growth media and plated at 5,000 cells/well in 384 well plates (Greiner part #784080). […]
Receptor mediated beta-arrestin recruitment was determined using the DiscoveRx β-arrestin PathHunter Detection kit (cat #93-0001). […] Following a 60 minute incubation at 37° C. the components of the DiscoveRx β-arrestin PathHunter Detection kit were added as directed and the plates were read after 1 hour on a BMG PheraStar plate reader.

T1 sequence (P41143 whole entry): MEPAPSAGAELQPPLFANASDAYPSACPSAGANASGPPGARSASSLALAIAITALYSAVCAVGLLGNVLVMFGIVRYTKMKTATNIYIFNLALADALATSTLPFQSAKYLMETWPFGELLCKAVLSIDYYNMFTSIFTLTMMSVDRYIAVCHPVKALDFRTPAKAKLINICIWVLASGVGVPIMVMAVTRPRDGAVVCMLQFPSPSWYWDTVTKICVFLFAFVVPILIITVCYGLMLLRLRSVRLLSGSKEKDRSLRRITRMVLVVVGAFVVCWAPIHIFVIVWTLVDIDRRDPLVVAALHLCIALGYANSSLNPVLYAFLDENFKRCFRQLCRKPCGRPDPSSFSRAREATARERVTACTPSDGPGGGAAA

Take `COc1ccc([C@@H]2CCN(CCC=C(F)F)[C@H](C)[C@H]2COc2ccc3c(c2)C(=O)NC3)cc1` [Compound B1145, (−)-6-{[trans, trans-1-(4,4-difluorobut-3-en-1-yl)-4-(4-methoxyphenyl)-2-methylpiperidin-3-yl]methoxy}-2,3-dihydro-1H-isoindol-1-one]: the “Active CFA Dose” value in test [1] (route sc) is given as ≤10 mg/kg. Besides, the minimal effective dose in test [2] and in test [3] was ≤ 10 mg/kg throughout.

With `COc1ccc([C@@H]2CCN(CCc3ccccc3)[C@H](C)[C@H]2COc2ccc3c(c2)C(=O)NC3)cc1` [Compound B0707, (−)-6-{[(trans, trans)-4-(4-methoxyphenyl)-2-methyl-1-(2-phenylethy)piperidin-3-yl]methoxy}-2,3-dihydro-1H-isoindol-1-one], the “Active CFA Dose” value in test [1] (route po) is given as ≤30 mg/kg; in test [6], ≤10 mg/kg. Further, the minimal effective dose in test [2] is ≤ 30 mg/kg; in test [3] it was ≤ 10 mg/kg. In test [4], the “Active Dose (hemilesioned rat 6-OHDA model)” value is reported as ≤30 mg/kg. The “Active Migraine Doses” value in test [5] is ≤10 mg/kg.

On to `Fc1ccc([C@@H]2CCNC[C@H]2COc2ccc3c(c2)OCO3)cc1` [Paroxetine], for which the “hDOR G Span” value in test [7] (G-protein mediated cAMP response, HEK-293 cells) is reported as <100. Moreover, the “selectivity for the delta-opioid receptor” value in test [7] (also tested at mu and kappa-opioid receptor) is on record as “non-selectivity”. For the same compound, the “hDOR B Span” value in test [8] is <100. For the same compound, in test [8] (read-out: hDOR B pEC50 (converted)), the EC50 was > 1000 nM.
